Experimental findings from patent US6723680B2, “Composition for regulation of gametophytic self-incompatibility, control method of gametophytic self-incompatibility of a plant and the plant self-pollinated by using said control method” (Istech Co., Ltd., priority 2000, dated 2004) are described below.

In this test the test system is style-specific S1 RNase and S2 RNase. Put plainly: Inhibition of style-specific RNase activity. The format is biochemical, Fuji apple. The note with it: 1 mM DEPC. As for the experimental part: The activity variation of the style-specific S1 RNase and S2 RNase purified in the Example 1-4 was investigated by adding chemicals acting as an inhibitor of protein degradation enzyme. RNase activity was measured by adding general stimulators of RNase activity, inhibitors of RNase activity commercially available and inhibitor candidate of a style-specific RNase of the present invention (Singh A. et al., Plant Physiology, 96:61-68, 1991). Among them, 1 mM EDTA, which is a representative inhibitor of protein degradation enzyme, 1 mM CaCl2, a stimulator of RNase activity, 1 mM DEPC (Sigma), a fatally poisonous inhibitor of RNase activity commercially available, and 1 mM ZnSO4 and 1 mM CuSO4, inhibitor candidates of the style-specific RNase was added respectively to mesure RNase activity.

Consider `CCOC(=O)OC(=O)OCC` [DEPC], for which the “style-specific RNase activity” value was “inhibited”.
